Reference: patent US9745322B2, “Compounds for the treatment of hepatitis C” (priority 2013, dated 2017)
Where two headings read alike, the source gives them in different places.

Tested on: HCV pseudoparticles, genotype 1a (H77C) E1 and E2 envelope
Assay: HCV pseudoparticle infection assay (luciferase reporter, Huh7 cells)
Format: cell-based, HCV genotype 1a (H77C)
Details: Hepatitis C virus, Huh-7, 48 h, read-out: EC50 (nM) 1a (H77C), HCV pseudoparticles genotype 1a H77C, Huh7 cells, luciferase 2 days after infection

SMILES	EC50 (class symbol) [nM]	EC50 (numeric value) [nM]
COC(=O)[C@H](CNC(=O)C(=O)N(C)C)NC(=O)c1ccc2cc1OCCCCCCOc1ccc(cc1)CNc1nc(nc(OCC(F)(F)F)n1)N2 [Example 1001]	0.1 to 100	0.624
CNC(=O)C(=O)NC[C@H](NC(=O)c1ccc2cc1OCCCCCCOc1ccc(cc1)CNc1nc(nc(OCC(F)(F)F)n1)N2)C(=O)OC [Example 1002]	0.1 to 100	–
COC(=O)[C@H](CNC(=O)C(N)=O)NC(=O)c1ccc2cc1OCCCCCCOc1ccc(cc1)CNc1nc(nc(OCC(F)(F)F)n1)N2 [Example 1003]	0.1 to 100	–
CN(C)C(=O)C(=O)NC[C@H](NC(=O)c1ccc2cc1OCCCCCCOc1ccc(cc1)CNc1nc(nc(OCC(F)(F)F)n1)N2)C(=O)O [Example 1004]	0.1 to 100	–
CNC(=O)C(=O)NC[C@H](NC(=O)c1ccc2cc1OCCCCCCOc1ccc(cc1)CNc1nc(nc(OCC(F)(F)F)n1)N2)C(=O)O [Example 1005]	0.1 to 100	2.47
